Experimental data from patent US9963467B2, “Boronic acid derivatives and therapeutic uses thereof” (Rempex Pharmaceuticals, Inc., priority 2014, dated 2018).

Tests used:
ec302 (TEM-10) [1] = assay: Aztreonam potentiation (MPC@4), ec302; type: cell-based; conditions: BLI with aztreonam at 4 μg/mL
KP1004 (KPC-2) [2] = assay: Aztreonam potentiation (MPC@4), KP1004; type: cell-based; conditions: BLI with aztreonam at 4 μg/mL
ECL1002 [3] = assay: Aztreonam potentiation (MPC@4), ECL1002; type: cell-based; conditions: BLI with aztreonam at 4 μg/mL
EC1010 (CMY-6) [4] = assay: organism not typed; type: cell-based
KP1005 (CTX-M-14) [5] = assay: Tigemonam potentiation (MPC@4), KP1005; type: cell-based; conditions: BLI with tigemonam at 4 μg/mL
KP1009 (CTX-M-15) = assay: Tigemonam potentiation (MPC@4), KP1009; type: cell-based; conditions: BLI with tigemonam at 4 μg/mL
ec308 (SHV-5) = assay: Tigemonam potentiation (MPC@4), ec308; type: cell-based
KP1010 (SHV-12) = assay: Tigemonam potentiation (MPC@4), KP1010; type: cell-based
ec302 (TEM-10) [6] = assay: Tigemonam potentiation (MPC@4), ec302; type: cell-based
ECL1002 [7] = assay: Tigemonam potentiation (MPC@4), ECL1002; type: cell-based; conditions: BLI with tigemonam at 4 μg/mL
EC1010 (CMY-6) [8] = assay: Tigemonam potentiation (MPC@4), EC1010; type: cell-based; conditions: BLI with tigemonam at 4 μg/mL
CTX-M-14 = CTX-M-14 (Escherichia coli, UniProt Q9L5C7); assay: Ki, nitrocefin cleavage by purified enzyme, CTX-M-14; type: biochemical; conditions: nitrocefin reporter substrate; read-out: Ki (CTX-M-14, NCF)
CTX-M-14, sequence (Q9L5C7 29-291): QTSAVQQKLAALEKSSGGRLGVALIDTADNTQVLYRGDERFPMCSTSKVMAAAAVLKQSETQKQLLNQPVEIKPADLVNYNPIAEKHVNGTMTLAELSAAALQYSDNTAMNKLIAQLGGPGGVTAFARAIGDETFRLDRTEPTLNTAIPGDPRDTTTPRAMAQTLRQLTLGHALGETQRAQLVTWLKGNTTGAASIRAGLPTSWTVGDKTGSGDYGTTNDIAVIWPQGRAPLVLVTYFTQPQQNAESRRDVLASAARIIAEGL
Description: (§1) Purified enzymes were mixed with various concentrations of inhibitors in reaction buffer and incubated for 10 min at room temperature. Nitrocefin was added and substrate cleavage profiles were recorded at 490 nm every 10 sec for 10 min.

SHV-12 = SHV-12 (Klebsiella pneumoniae, UniProt P0AD64, E235K/G234S/L31Q); assay: Ki, nitrocefin cleavage by purified enzyme, SHV-12; type: biochemical; conditions: nitrocefin reporter substrate; read-out: Ki (SHV-12, NCF)
SHV-12, sequence (P0AD64 22-286 L31Q/G234S/E235K): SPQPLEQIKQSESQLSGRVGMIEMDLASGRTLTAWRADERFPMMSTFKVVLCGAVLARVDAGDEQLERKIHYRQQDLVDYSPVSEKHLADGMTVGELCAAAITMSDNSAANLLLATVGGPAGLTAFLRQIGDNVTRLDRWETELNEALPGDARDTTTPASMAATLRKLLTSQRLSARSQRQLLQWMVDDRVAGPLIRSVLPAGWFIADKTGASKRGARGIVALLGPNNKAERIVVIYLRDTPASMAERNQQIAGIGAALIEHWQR
Description: as §1

KPC-2 = KPC-2 (Klebsiella pneumoniae, UniProt Q9F663); assay: Ki, nitrocefin cleavage by purified enzyme, KPC-2; type: biochemical; conditions: nitrocefin reporter substrate; read-out: Ki (KPC-2, NCF)
KPC-2, sequence (Q9F663 25-293, looked up, species assumed): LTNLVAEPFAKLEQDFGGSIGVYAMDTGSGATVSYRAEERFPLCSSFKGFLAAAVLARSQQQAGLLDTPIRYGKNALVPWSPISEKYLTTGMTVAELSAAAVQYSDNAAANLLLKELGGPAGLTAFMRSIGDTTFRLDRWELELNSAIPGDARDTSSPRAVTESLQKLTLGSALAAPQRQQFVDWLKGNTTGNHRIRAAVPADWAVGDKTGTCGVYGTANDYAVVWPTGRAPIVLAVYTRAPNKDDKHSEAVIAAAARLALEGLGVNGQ
Description: as §1

P99 = P99 (Enterobacter cloacae, UniProt P05364); assay: Ki, nitrocefin cleavage by purified enzyme, P99; type: biochemical; conditions: nitrocefin reporter substrate; read-out: Ki (P99, NCF)
P99, sequence (P05364 21-381): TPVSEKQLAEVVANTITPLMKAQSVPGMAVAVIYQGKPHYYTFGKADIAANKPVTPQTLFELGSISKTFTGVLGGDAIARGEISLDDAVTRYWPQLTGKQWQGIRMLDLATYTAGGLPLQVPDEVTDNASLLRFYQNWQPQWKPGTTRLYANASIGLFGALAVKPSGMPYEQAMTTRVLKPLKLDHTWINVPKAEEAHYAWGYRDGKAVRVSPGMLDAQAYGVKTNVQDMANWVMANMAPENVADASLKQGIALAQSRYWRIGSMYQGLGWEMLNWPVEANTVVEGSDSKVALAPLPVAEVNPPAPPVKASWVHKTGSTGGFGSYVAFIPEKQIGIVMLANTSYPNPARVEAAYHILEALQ
Description: as §1

Pa AmpC = Pa AmpC (Pseudomonas aeruginosa, UniProt P24735); assay: Ki, nitrocefin cleavage by purified enzyme, Pa AmpC; type: biochemical; conditions: nitrocefin reporter substrate; read-out: Ki (Pa AmpC, NCF)
Pa AmpC, sequence (P24735 27-397): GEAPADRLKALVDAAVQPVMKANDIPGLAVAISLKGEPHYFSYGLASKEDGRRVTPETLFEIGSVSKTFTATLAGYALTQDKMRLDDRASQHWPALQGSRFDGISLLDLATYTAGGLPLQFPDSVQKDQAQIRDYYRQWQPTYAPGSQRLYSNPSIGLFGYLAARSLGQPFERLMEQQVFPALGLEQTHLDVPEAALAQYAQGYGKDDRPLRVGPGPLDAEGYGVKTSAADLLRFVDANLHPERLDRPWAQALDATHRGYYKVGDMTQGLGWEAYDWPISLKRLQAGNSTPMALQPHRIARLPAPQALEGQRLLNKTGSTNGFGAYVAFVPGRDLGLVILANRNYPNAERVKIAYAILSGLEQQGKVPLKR
Description: Ki values of inhibition of purified class A, C and D enzymes were determined spectrophotometrically using nitrocefin as reporter substrate. Purified enzymes were mixed with various concentrations of inhibitors in reaction buffer and incubated for 10 min at room temperature. Nitrocefin was added and substrate cleavage profiles were recorded at 490 nm every 10 sec for 10 min. These experiments confirmed that the described compounds are inhibitors with a broad-spectrum of activity towards various β-lactamases.

KP1004 (KPC-2) [9] = assay: Biapenem potentiation (MPC@1), KP1004; conditions: BLI with biapenem at 1 μg/mL
KP1086 (OXA-48) = assay: Biapenem potentiation (MPC@1), KP1086; conditions: BLI with biapenem at 1 μg/mL
KP1005 (CTX-M-14) [10] = assay: Aztreonam potentiation (MPC@4), KP1005; type: cell-based; conditions: BLI with aztreonam at 4 μg/mL
OXA-48 = OXA-48 (Klebsiella pneumoniae, UniProt Q6XEC0); assay: Ki, nitrocefin cleavage by purified enzyme, OXA-48; type: biochemical; conditions: nitrocefin reporter substrate; read-out: Ki (OXA-48, NCF)
OXA-48, sequence (Q6XEC0 23-265, looked up, species assumed): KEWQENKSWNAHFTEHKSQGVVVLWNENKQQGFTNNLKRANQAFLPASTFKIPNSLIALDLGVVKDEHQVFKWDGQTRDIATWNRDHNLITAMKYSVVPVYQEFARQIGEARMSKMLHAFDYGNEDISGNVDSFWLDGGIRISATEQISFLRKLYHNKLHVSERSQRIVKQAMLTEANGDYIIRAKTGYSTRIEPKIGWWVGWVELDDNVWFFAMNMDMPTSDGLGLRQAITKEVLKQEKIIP
Description: as §1

[11] = Monomer content of pH adjusted aqueous solutions (LC-UV); type: physicochemical; conditions: 1 mg/mL aqueous salt solution, pH adjusted to 7.6 to 8, LC-UV
Description: Boronic acid containing compounds are known to undergo oligomerization. The presence of oligomers can greatly complicate drug development, as they represent new chemical species whose content must be controlled and qualified by testing in toxoicology studies. The monomer content of compounds was evaluated by adjusting aqueous solutions to physiological pH at various concentrations. The monomer content of pH adjusted solutions was measured using LC-UV. Test compounds were weighed out into a 1.5 mL Eppendorf tube. A solution of water was prepared in 1.00 mg/mL, 10.0 mg/mL or 100 mg/mL concentrations of the compound based on active fraction. A volume 20 uL was subtracted to allow room for addition of acid or base to adjust pH. The solution pH was measured. The pH was then adjusted through addition of acid or base as necessary until the reading was in the 7.6 to 8 range. A final pH measurement was made after ensuring all the compound was in solution. The solution was injected onto LC-UV in 0.1 uL to 5 uL volume within less than half an hour after the time the sample was prepared. Elution was done using 0.1% TFA in water for mobile phase A and 0.085% TFA in methanol for mobile phase B on an Excel ACE 5 Super C18 2.1×100 mm column at 0.6 ml/min flow rate with 9 min gradient, 3.9 minute hold at 90% B and 18 minute run time. The absorption was measured at 220, 254 and 300 nm with a 4 nm bandwidth.

Row | Compound | AZT MPC4 TEM-10 ec302 (ec302 (TEM-10) [1]) | AZT MPC4 KPC-2 KP1004 (KP1004 (KPC-2) [2]) | AZT MPC4 ECL1002 (ECL1002 [3]) | AZT MPC4 CMY-6 EC1010 (EC1010 (CMY-6) [4]) | TIG MPC4 CTX-M-14 KP1005 (KP1005 (CTX-M-14) [5]) | TIG MPC4 CTX-M-15 KP1009 (KP1009 (CTX-M-15)) | TIG MPC4 SHV-5 ec308 (ec308 (SHV-5)) | TIG MPC4 SHV-12 KP1010 (KP1010 (SHV-12)) | TIG MPC4 TEM-10 ec302 (ec302 (TEM-10) [6]) | TIG MPC4 ECL1002 (ECL1002 [7]) | TIG MPC4 CMY-6 EC1010 (EC1010 (CMY-6) [8]) | Ki (CTX-M-14) [nM] | Ki (SHV-12) [nM] | Ki (KPC-2) [nM] | Ki (P99) [nM] | Ki (Pa AmpC) [nM] | BPM MPC1 KP1004 KPC-2 (KP1004 (KPC-2) [9]) | BPM MPC1 OXA-48 KP1086 (KP1086 (OXA-48)) | Ki (OXA-48) [nM] | % Monomer in 1 mg/mL salt solution [11] [%] | also measured
1 | CSCC(=O)N[C@H]1Cc2ccc(SCC(N)=O)c(C(=O)O)c2OB1O [Compound 22, (R)-7-(2-amino-2-oxoethylthio)-2-hydroxy-3-(2-(methylthio)acetamido)-3,4-dihydro-2H-benzo[e][1,2]oxaborinine-8-carboxylic acid] | Y (MIC of 1 μg/mL to 10 μg/mL) | Y (MIC of 1 μg/mL to 10 μg/mL) | Y (MIC of 1 μg/mL to 10 μg/mL) | Y (key: X: MIC of less than 1 ng/mL; Y: MIC of 1 μg/mL to 10 μg/mL; Z: MIC of greater than 10 μg/mL) | X (MIC of less than 1 μg/mL) | X (MIC of less than 1 μg/mL) | X (key: X: MIC of less than 1 μg/mL; Y: MIC of 1 μg/mL to 10 μg/mL; Z: MIC of greater than 10 μg/mL) | X (key: X: MIC of less than 1 μg/mL; Y: MIC of 1 μg/mL to 10 μg/mL; Z: MIC of greater than 10 μg/mL) | Y (key: X: MIC of less than 1 ng/mL; Y: MIC of 1 μg/mL to 10 μg/mL; Z: MIC of greater than 10 μg/mL) | Y (MIC of 1 μg/mL to 10 μg/mL) | X (MIC of less than 1 μg/mL) | < 1 | < 1 | > 10 | > 10 | > 10 | X (MIC of less than 1 μg/mL) | Z (MIC of greater than 10 μg/mL) |  |  | 
2 | O=C(O)CC(=O)N[C@H]1Cc2ccc(F)c(C(=O)O)c2OB1O [Compound 4, (R)-3-(2-carboxyacetamido)-7-fluoro-2-hydroxy-3,4-dihydro-2H-benzo[e][1,2]oxaborinine-8-carboxylic acid] | Y (MIC of 1 μg/mL to 10 μg/mL) | Y (MIC of 1 μg/mL to 10 μg/mL) | Y (MIC of 1 μg/mL to 10 μg/mL) | Y (key: X: MIC of less than 1 ng/mL; Y: MIC of 1 μg/mL to 10 μg/mL; Z: MIC of greater than 10 μg/mL) | Y (MIC of 1 μg/mL to 10 μg/mL) | X (MIC of less than 1 μg/mL) | Y (key: X: MIC of less than 1 ng/mL; Y: MIC of 1 μg/mL to 10 μg/mL; Z: MIC of greater than 10 μg/mL) | Y (key: X: MIC of less than 1 ng/mL; Y: MIC of 1 μg/mL to 10 μg/mL; Z: MIC of greater than 10 μg/mL) | Z (key: X: MIC of less than 1 ng/mL; Y: MIC of 1 μg/mL to 10 μg/mL; Z: MIC of greater than 10 μg/mL) | X (MIC of less than 1 μg/mL) | X (MIC of less than 1 μg/mL) | < 1 | < 1 | > 10 | > 10 | > 10 | X (MIC of less than 1 μg/mL) | Z (MIC of greater than 10 μg/mL) | < 1 |  | AZT MPC4 CTX-M-14 KP1005 (KP1005 (CTX-M-14) [10]): Y (MIC of 1 μg/mL to 10 μg/mL)
3 | CSCC(=O)N[C@H]1Cc2cc(F)c(F)c(C(=O)O)c2OB1O [Compound 36, (R)-6,7-difluoro-2-hydroxy-3-(2-(methylthio)acetamido)-3,4-dihydro-2H-benzo[e][1,2]oxaborinine-8-carboxylic acid] | Y (MIC of 1 μg/mL to 10 μg/mL) | Y (MIC of 1 μg/mL to 10 μg/mL) | Y (MIC of 1 μg/mL to 10 μg/mL) | Y (key: X: MIC of less than 1 ng/mL; Y: MIC of 1 μg/mL to 10 μg/mL; Z: MIC of greater than 10 μg/mL) | X (MIC of less than 1 μg/mL) | X (MIC of less than 1 μg/mL) | X (key: X: MIC of less than 1 μg/mL; Y: MIC of 1 μg/mL to 10 μg/mL; Z: MIC of greater than 10 μg/mL) | X (key: X: MIC of less than 1 μg/mL; Y: MIC of 1 μg/mL to 10 μg/mL; Z: MIC of greater than 10 μg/mL) | Y (key: X: MIC of less than 1 ng/mL; Y: MIC of 1 μg/mL to 10 μg/mL; Z: MIC of greater than 10 μg/mL) | X (MIC of less than 1 μg/mL) | X (MIC of less than 1 μg/mL) | < 1 | < 1 | > 10 | > 10 | > 10 | X (MIC of less than 1 μg/mL) | Y (MIC of 1 μg/mL to 10 μg/mL) | < 1 |  | 
4 | CSCC(=O)N[C@H]1Cc2ccc(SC3CNC3)c(C(=O)O)c2OB1O [Compound 11, (R)-7-(azetidin-3-ylthio)-2-hydroxy-3-(2-(methylthio)acetamido)-3,4-dihydro-2H-benzo oxaborinine-8-carboxylic acid] | Y (MIC of 1 μg/mL to 10 μg/mL) | Y (MIC of 1 μg/mL to 10 μg/mL) | Y (MIC of 1 μg/mL to 10 μg/mL) | Y (key: X: MIC of less than 1 ng/mL; Y: MIC of 1 μg/mL to 10 μg/mL; Z: MIC of greater than 10 μg/mL) | X (MIC of less than 1 μg/mL) | Y (MIC of 1 μg/mL to 10 μg/mL) | X (key: X: MIC of less than 1 μg/mL; Y: MIC of 1 μg/mL to 10 μg/mL; Z: MIC of greater than 10 μg/mL) | X (key: X: MIC of less than 1 μg/mL; Y: MIC of 1 μg/mL to 10 μg/mL; Z: MIC of greater than 10 μg/mL) | Z (key: X: MIC of less than 1 ng/mL; Y: MIC of 1 μg/mL to 10 μg/mL; Z: MIC of greater than 10 μg/mL) | X (MIC of less than 1 μg/mL) | X (MIC of less than 1 μg/mL) | 1 to 10 | 1 to 10 | > 10 | > 10 | > 10 | X (MIC of less than 1 μg/mL) | Y (MIC of 1 μg/mL to 10 μg/mL) | 1 to 10 | 88.0 | 
5 | CNC(=O)CC(=O)N[C@H]1Cc2ccc(F)c(C(=O)O)c2OB1O [Compound 7, (R)-7-fluoro-2-hydroxy-3-(3-(methylamino)-3-oxopropanamido)-3,4-dihydro-2H-benzo[e][1,2]oxaborinine-8-carboxylic acid] | Y (MIC of 1 μg/mL to 10 μg/mL) |  | Y (MIC of 1 μg/mL to 10 μg/mL) | Y (key: X: MIC of less than 1 ng/mL; Y: MIC of 1 μg/mL to 10 μg/mL; Z: MIC of greater than 10 μg/mL) | Y (MIC of 1 μg/mL to 10 μg/mL) | X (MIC of less than 1 μg/mL) | X (key: X: MIC of less than 1 μg/mL; Y: MIC of 1 μg/mL to 10 μg/mL; Z: MIC of greater than 10 μg/mL) | X (key: X: MIC of less than 1 μg/mL; Y: MIC of 1 μg/mL to 10 μg/mL; Z: MIC of greater than 10 μg/mL) | Z (key: X: MIC of less than 1 ng/mL; Y: MIC of 1 μg/mL to 10 μg/mL; Z: MIC of greater than 10 μg/mL) | X (MIC of less than 1 μg/mL) | X (MIC of less than 1 μg/mL) | < 1 | < 1 | > 10 | > 10 | > 10 | X (MIC of less than 1 μg/mL) | Y (MIC of 1 μg/mL to 10 μg/mL) | 1 to 10 | 97.1 | 
